# Test system: cells as in Example 1, FasAb-induced apoptosis
# Test: effect of I9 fractions on low dose FasAb-induced apoptosis (Example 3)
# Assay type: cell-based
# Conditions: 0.2 mg/ml simultaneously with 100 ng/ml FasAb of Euromedex origin; 24 hours of incubation
# Procedure: The effect induced by various constituents of this mixture, in particular of fractions DP 2, DP 3, DP 4, DP 5 and DP 7, was tested.
# The polymer constituting the raw material of I9 was also tested, as was the product named KIK (hexasaccharide of type kappa-iota-kappa).
# For these experiments, the procedure was carried out as in Example 1, simultaneously introducing, on the one hand, 0.2 mg/ml of each of the abovementioned fractions of I9 and, on the other hand, 100 ng/ml of FasAb of Euromedex origin.
# After 24 hours of incubation, the findings summarized below were made.
row,Substance,stimulatory effect on FasAb-induced apoptosis
1,iota-carrageenan,active
2,iota-neocarradecaose [DP 5],inactive
3,iota-neocarraoctaose [DP 4],inactive
4,oligo-iota-carrageenan [DP 7],50%
5,iota-neocarraletraose [DP 2],inactive
6,iota-neocarrahexaose [DP 3],inactive

# Reference: US6750208B1, “Medicine for treating apoptosis dysfunction containing oligosaccharides” (Laboratoires Goemar S.A., priority 1998, dated 2004)
